± gives the expanded uncertainty stated by the source.
Assay: xn = mol fraction of the nth substance listed
Conditions: 93.2 kPa, Liquid, Vibrating tube method

CCCCNCCCC [dibutylamine] + CC#N
mass density [kg/m3]
Conditions | 293.15 K | 298.15 K | 303.15 K | 308.15 K
x2 = 0 | 759.7 ± 2 | 755.61 ± 2 | 751.5 ± 2 | 747.38 ± 2
x2 = 0.0695 | 760.49 ± 2 | 756.33 ± 2 | 752.17 ± 2 | 748 ± 2
x2 = 0.081 | 760.6 ± 2 | 756.44 ± 2 | 752.27 ± 2 | 748.08 ± 2
x2 = 0.1023 | 760.85 ± 2 | 756.68 ± 2 | 752.5 ± 2 | 748.3 ± 2
x2 = 0.1527 | 761.32 ± 2 | 757.12 ± 2 | 752.9 ± 2 | 748.66 ± 2
x2 = 0.2029 | 761.82 ± 2 | 757.58 ± 2 | 753.32 ± 2 | 749.05 ± 2
x2 = 0.2499 | 762.19 ± 2 | 757.95 ± 2 | 753.65 ± 2 | 749.34 ± 2
x2 = 0.2996 | 762.67 ± 2 | 758.39 ± 2 | 754.06 ± 2 | 749.71 ± 2
x2 = 0.3542 | 763.23 ± 2 | 758.88 ± 2 | 754.51 ± 2 | 750.12 ± 2
x2 = 0.3978 | 763.73 ± 2 | 759.35 ± 2 | 754.95 ± 2 | 750.52 ± 2
x2 = 0.47 | 764.62 ± 2 | 760.17 ± 2 | 755.7 ± 2 | 751.19 ± 2
x2 = 0.4987 | 764.98 ± 2 | 760.52 ± 2 | 756.02 ± 2 | 751.49 ± 2
x2 = 0.5498 | 765.74 ± 2 | 761.23 ± 2 | 756.67 ± 2 | 752.09 ± 2
x2 = 0.6001 | 766.63 ± 2 | 762.05 ± 2 | 757.43 ± 2 | 752.78 ± 2
x2 = 0.6499 | 767.62 ± 2 | 762.97 ± 2 | 758.29 ± 2 | 753.59 ± 2
x2 = 0.6991 | 768.71 ± 2 | 763.99 ± 2 | 759.24 ± 2 | 754.46 ± 2
x2 = 0.7496 | 770.07 ± 2 | 765.28 ± 2 | 760.44 ± 2 | 755.59 ± 2
x2 = 0.8 | 771.64 ± 2 | 766.75 ± 2 | 761.82 ± 2 | 756.87 ± 2
x2 = 0.8494 | 773.46 ± 2 | 768.5 ± 2 | 763.47 ± 2 | 758.42 ± 2
x2 = 0.8994 | 775.72 ± 2 | 770.63 ± 2 | 765.48 ± 2 | 760.32 ± 2
x2 = 0.9293 | 777.27 ± 2 | 772.08 ± 2 | 766.87 ± 2 | 761.62 ± 2
x2 = 0.9394 | 777.86 ± 2 | 772.65 ± 2 | 767.41 ± 2 | 762.14 ± 2
x2 = 0.9498 | 778.5 ± 2 | 773.27 ± 2 | 768 ± 2 | 762.7 ± 2
x2 = 0.9596 | 779.13 ± 2 | 773.86 ± 2 | 768.55 ± 2 | 763.23 ± 2
x2 = 0.9699 | 779.82 ± 2 | 774.53 ± 2 | 769.19 ± 2 | 763.83 ± 2
x2 = 0.9799 | 780.54 ± 2 | 775.22 ± 2 | 769.85 ± 2 | 764.46 ± 2
x2 = 0.9897 | 781.26 ± 2 | 775.91 ± 2 | 770.51 ± 2 | 765.09 ± 2

CCN(CC)CC [triethylamine] + CC#N
mass density [kg/m3]
Conditions | 293.15 K | 298.15 K | 303.15 K | 308.15 K
x2 = 0 | 727.7 ± 2 | 723.02 ± 2 | 718.36 ± 2 | 713.65 ± 2
x2 = 0.0113 | 728.13 ± 2 | 723.44 ± 2 | 718.77 ± 2 | 714.06 ± 2
x2 = 0.0212 | 728.41 ± 2 | 723.73 ± 2 | 719.05 ± 2 | 714.32 ± 2
x2 = 0.03 | 728.67 ± 2 | 723.97 ± 2 | 719.29 ± 2 | 714.57 ± 2
x2 = 0.0406 | 728.98 ± 2 | 724.28 ± 2 | 719.6 ± 2 | 714.86 ± 2
x2 = 0.0502 | 729.23 ± 2 | 724.53 ± 2 | 719.84 ± 2 | 715.1 ± 2
x2 = 0.0591 | 729.48 ± 2 | 724.77 ± 2 | 720.06 ± 2 | 715.32 ± 2
x2 = 0.0701 | 729.78 ± 2 | 725.07 ± 2 | 720.35 ± 2 | 715.6 ± 2
x2 = 0.0842 | 730.18 ± 2 | 725.45 ± 2 | 720.73 ± 2 | 715.97 ± 2
x2 = 0.0944 | 730.47 ± 2 | 725.73 ± 2 | 721.02 ± 2 | 716.24 ± 2
x2 = 0.1013 | 730.66 ± 2 | 725.97 ± 2 | 721.24 ± 2 | 716.48 ± 2
x2 = 0.1519 | 732.16 ± 2 | 727.46 ± 2 | 722.63 ± 2 | 717.85 ± 2
x2 = 0.1991 | 733.6 ± 2 | 728.85 ± 2 | 723.99 ± 2 | 719.16 ± 2
x2 = 0.2501 | 735.21 ± 2 | 730.39 ± 2 | 725.53 ± 2 | 720.64 ± 2
x2 = 0.3018 | 736.94 ± 2 | 732.07 ± 2 | 727.17 ± 2 | 722.25 ± 2
x2 = 0.3505 | 738.65 ± 2 | 733.76 ± 2 | 728.84 ± 2 | 723.88 ± 2
x2 = 0.4003 | 740.52 ± 2 | 735.58 ± 2 | 730.62 ± 2 | 725.63 ± 2
x2 = 0.4482 | 742.43 ± 2 | 737.48 ± 2 | 732.49 ± 2 | 727.48 ± 2
x2 = 0.5002 | 744.69 ± 2 | 739.7 ± 2 | 734.68 ± 2 | 729.63 ± 2
x2 = 0.5511 | 747.1 ± 2 | 742.08 ± 2 | 737.03 ± 2 | 731.95 ± 2
x2 = 0.5995 | 749.58 ± 2 | 744.55 ± 2 | 739.43 ± 2 | 734.36 ± 2
x2 = 0.6499 | 752.4 ± 2 | 747.32 ± 2 | 742.18 ± 2 | 737.06 ± 2
x2 = 0.702 | 755.6 ± 2 | 750.5 ± 2 | 745.3 ± 2 | 740.16 ± 2
x2 = 0.7498 | 758.83 ± 2 | 753.71 ± 2 | 748.42 ± 2 | 743.28 ± 2
x2 = 0.7998 | 762.53 ± 2 | 757.35 ± 2 | 752.07 ± 2 | 746.81 ± 2
x2 = 0.85 | 766.68 ± 2 | 761.45 ± 2 | 756.13 ± 2 | 750.82 ± 2
x2 = 0.8994 | 771.19 ± 2 | 765.92 ± 2 | 760.59 ± 2 | 755.2 ± 2
x2 = 0.9095 | 772.21 ± 2 | 766.93 ± 2 | 761.6 ± 2 | 756.23 ± 2
x2 = 0.9199 | 773.25 ± 2 | 767.97 ± 2 | 762.63 ± 2 | 757.25 ± 2
x2 = 0.9293 | 774.23 ± 2 | 768.93 ± 2 | 763.58 ± 2 | 758.19 ± 2
x2 = 0.9402 | 775.35 ± 2 | 770.05 ± 2 | 764.69 ± 2 | 759.29 ± 2
x2 = 0.9495 | 776.36 ± 2 | 771.03 ± 2 | 765.7 ± 2 | 760.33 ± 2
x2 = 0.9591 | 777.43 ± 2 | 772.08 ± 2 | 766.69 ± 2 | 761.27 ± 2
x2 = 0.9685 | 778.48 ± 2 | 773.13 ± 2 | 767.72 ± 2 | 762.31 ± 2
x2 = 0.99 | 780.9 ± 2 | 775.52 ± 2 | 770.1 ± 2 | 764.64 ± 2

— the NIST ThermoML archive (doi:10.1016/j.jct.2015.09.002)
